Reference: the NIST ThermoML archive (doi:10.1016/j.fluid.2018.09.024)
Numbers after ± are expanded uncertainties.

Assay: activity coefficient (dimensionless); of the first substance listed, at infinite dilution; xn = mol fraction of the nth substance listed
Details: 101.33 kPa, Liquid, Chromatography, x1 = 0

SMILES | activity coefficient (328.15 K) | activity coefficient (338.15 K) | activity coefficient (348.15 K) | activity coefficient (358.15 K) | activity coefficient (368.15 K) | activity coefficient (378.15 K) | activity coefficient (318.15 K)
CO [methanol] + CCCCCCCCCCCC[N+](C)(C)CCOc1ccccc1.N#C[N-]C#N | 0.316 ± 0.031 | 0.324 ± 0.032 | 0.332 ± 0.032 | 0.339 ± 0.032 | 0.346 ± 0.032 | 0.353 ± 0.032 | 
CO [methanol] + CCCCCCCCCCCC[N+](C)(C)CCOc1ccccc1.O=S(=O)([N-]S(=O)(=O)C(F)(F)F)C(F)(F)F | 1.06 ± 0.07 | 1.04 ± 0.07 | 1.01 ± 0.06 | 0.982 ± 0.062 | 0.964 ± 0.061 |  | 1.1 ± 0.07
CCCC(=O)OC [methyl butanoate] + CCCCCCCCCCCC[N+](C)(C)CCOc1ccccc1.N#C[N-]C#N | 1.29 ± 0.08 | 1.34 ± 0.09 | 1.38 ± 0.09 | 1.42 ± 0.09 | 1.46 ± 0.1 | 1.5 ± 0.1 | 
CCCC(=O)OC [methyl butanoate] + CCCCCCCCCCCC[N+](C)(C)CCOc1ccccc1.O=S(=O)([N-]S(=O)(=O)C(F)(F)F)C(F)(F)F | 0.601 ± 0.042 | 0.636 ± 0.044 | 0.672 ± 0.046 | 0.706 ± 0.047 | 0.741 ± 0.049 |  | 0.565 ± 0.041
COC(C)=O [methyl ethanoate] + CCCCCCCCCCCC[N+](C)(C)CCOc1ccccc1.N#C[N-]C#N | 1.03 ± 0.06 | 1.06 ± 0.07 | 1.09 ± 0.07 | 1.12 ± 0.07 | 1.14 ± 0.07 | 1.17 ± 0.07 | 
COC(C)=O [methyl ethanoate] + CCCCCCCCCCCC[N+](C)(C)CCOc1ccccc1.O=S(=O)([N-]S(=O)(=O)C(F)(F)F)C(F)(F)F | 0.503 ± 0.038 | 0.534 ± 0.039 | 0.563 ± 0.04 | 0.595 ± 0.042 | 0.628 ± 0.043 |  | 0.474 ± 0.037
CCC(=O)OC [methyl propanoate] + CCCCCCCCCCCC[N+](C)(C)CCOc1ccccc1.N#C[N-]C#N | 1.13 ± 0.07 | 1.16 ± 0.07 | 1.19 ± 0.08 | 1.22 ± 0.08 | 1.25 ± 0.08 | 1.28 ± 0.08 | 
CCC(=O)OC [methyl propanoate] + CCCCCCCCCCCC[N+](C)(C)CCOc1ccccc1.O=S(=O)([N-]S(=O)(=O)C(F)(F)F)C(F)(F)F | 0.53 ± 0.039 | 0.566 ± 0.041 | 0.599 ± 0.042 | 0.633 ± 0.044 | 0.669 ± 0.045 |  | 0.498 ± 0.038
CC1CCCCC1 [methylcyclohexane] + CCCCCCCCCCCC[N+](C)(C)CCOc1ccccc1.N#C[N-]C#N | 3.67 ± 0.25 | 3.73 ± 0.25 | 3.78 ± 0.26 | 3.85 ± 0.26 | 3.9 ± 0.27 | 3.95 ± 0.27 | 
CC1CCCCC1 [methylcyclohexane] + CCCCCCCCCCCC[N+](C)(C)CCOc1ccccc1.O=S(=O)([N-]S(=O)(=O)C(F)(F)F)C(F)(F)F | 2.39 ± 0.16 | 2.43 ± 0.17 | 2.47 ± 0.17 | 2.51 ± 0.17 | 2.55 ± 0.17 |  | 2.35 ± 0.16
CCCCCCCCC [nonane] + CCCCCCCCCCCC[N+](C)(C)CCOc1ccccc1.N#C[N-]C#N | 7.69 ± 0.52 | 7.83 ± 0.53 | 7.95 ± 0.54 | 8.08 ± 0.55 | 8.21 ± 0.56 | 8.34 ± 0.57 | 
CCCCCCCCC [nonane] + CCCCCCCCCCCC[N+](C)(C)CCOc1ccccc1.O=S(=O)([N-]S(=O)(=O)C(F)(F)F)C(F)(F)F | 4.87 ± 0.33 | 4.96 ± 0.34 | 5.03 ± 0.34 | 5.12 ± 0.35 | 5.18 ± 0.35 |  | 4.77 ± 0.33
C=CCCCCCC [oct-1-ene] + CCCCCCCCCCCC[N+](C)(C)CCOc1ccccc1.N#C[N-]C#N | 4.87 ± 0.33 | 4.98 ± 0.34 | 5.09 ± 0.35 | 5.2 ± 0.35 | 5.29 ± 0.36 | 5.38 ± 0.37 | 
C=CCCCCCC [oct-1-ene] + CCCCCCCCCCCC[N+](C)(C)CCOc1ccccc1.O=S(=O)([N-]S(=O)(=O)C(F)(F)F)C(F)(F)F | 3.06 ± 0.21 | 3.14 ± 0.21 | 3.23 ± 0.22 | 3.32 ± 0.23 | 3.39 ± 0.23 |  | 2.97 ± 0.2
CCCCCCCC [octane] + CCCCCCCCCCCC[N+](C)(C)CCOc1ccccc1.N#C[N-]C#N | 6.7 ± 0.46 | 6.8 ± 0.46 | 6.87 ± 0.47 | 6.96 ± 0.47 | 7.07 ± 0.48 | 7.15 ± 0.49 | 
CCCCCCCC [octane] + CCCCCCCCCCCC[N+](C)(C)CCOc1ccccc1.O=S(=O)([N-]S(=O)(=O)C(F)(F)F)C(F)(F)F | 4.14 ± 0.28 | 4.23 ± 0.29 | 4.32 ± 0.29 | 4.41 ± 0.3 | 4.5 ± 0.31 |  | 4.05 ± 0.28

SMILES | activity coefficient (328.15 K) | activity coefficient (338.15 K) | activity coefficient (348.15 K) | activity coefficient (358.15 K) | activity coefficient (368.15 K) | activity coefficient (378.15 K) | activity coefficient (318.15 K)
CCCCCO [pentan-1-ol] + CCCCCCCCCCCC[N+](C)(C)CCOc1ccccc1.N#C[N-]C#N | 0.477 ± 0.037 | 0.491 ± 0.037 | 0.505 ± 0.038 | 0.517 ± 0.039 | 0.53 ± 0.039 | 0.542 ± 0.04 | 
CCCCCO [pentan-1-ol] + CCCCCCCCCCCC[N+](C)(C)CCOc1ccccc1.O=S(=O)([N-]S(=O)(=O)C(F)(F)F)C(F)(F)F | 1.31 ± 0.09 | 1.27 ± 0.08 | 1.24 ± 0.08 | 1.22 ± 0.08 | 1.19 ± 0.08 |  | 1.34 ± 0.09
CCCC(C)=O [pentan-2-one] + CCCCCCCCCCCC[N+](C)(C)CCOc1ccccc1.N#C[N-]C#N | 0.899 ± 0.057 | 0.936 ± 0.059 | 0.97 ± 0.061 | 1 ± 0.06 | 1.04 ± 0.07 | 1.07 ± 0.07 | 
CCCC(C)=O [pentan-2-one] + CCCCCCCCCCCC[N+](C)(C)CCOc1ccccc1.O=S(=O)([N-]S(=O)(=O)C(F)(F)F)C(F)(F)F | 0.41 ± 0.034 | 0.434 ± 0.035 | 0.458 ± 0.036 | 0.481 ± 0.037 | 0.503 ± 0.038 |  | 0.386 ± 0.033
CCC(=O)CC [pentan-3-one] + CCCCCCCCCCCC[N+](C)(C)CCOc1ccccc1.N#C[N-]C#N | 0.909 ± 0.058 | 0.947 ± 0.06 | 0.981 ± 0.062 | 1.02 ± 0.06 | 1.05 ± 0.07 | 1.08 ± 0.07 | 
CCC(=O)CC [pentan-3-one] + CCCCCCCCCCCC[N+](C)(C)CCOc1ccccc1.O=S(=O)([N-]S(=O)(=O)C(F)(F)F)C(F)(F)F | 0.412 ± 0.034 | 0.437 ± 0.035 | 0.462 ± 0.036 | 0.486 ± 0.037 | 0.511 ± 0.038 |  | 0.387 ± 0.034
CCCO [propan-1-ol] + CCCCCCCCCCCC[N+](C)(C)CCOc1ccccc1.N#C[N-]C#N | 0.425 ± 0.035 | 0.435 ± 0.035 | 0.445 ± 0.036 | 0.454 ± 0.036 | 0.463 ± 0.036 | 0.471 ± 0.037 | 
CCCO [propan-1-ol] + CCCCCCCCCCCC[N+](C)(C)CCOc1ccccc1.O=S(=O)([N-]S(=O)(=O)C(F)(F)F)C(F)(F)F | 1.24 ± 0.08 | 1.2 ± 0.08 | 1.17 ± 0.07 | 1.14 ± 0.07 | 1.11 ± 0.07 |  | 1.28 ± 0.08
CC(C)O [propan-2-ol] + CCCCCCCCCCCC[N+](C)(C)CCOc1ccccc1.N#C[N-]C#N | 0.494 ± 0.038 | 0.504 ± 0.038 | 0.512 ± 0.038 | 0.52 ± 0.039 | 0.528 ± 0.039 | 0.535 ± 0.039 | 
CC(C)O [propan-2-ol] + CCCCCCCCCCCC[N+](C)(C)CCOc1ccccc1.O=S(=O)([N-]S(=O)(=O)C(F)(F)F)C(F)(F)F | 1.22 ± 0.08 | 1.18 ± 0.08 | 1.14 ± 0.07 | 1.11 ± 0.07 | 1.08 ± 0.07 |  | 1.27 ± 0.08
CCCc1ccccc1 [propylbenzene] + CCCCCCCCCCCC[N+](C)(C)CCOc1ccccc1.N#C[N-]C#N | 1.71 ± 0.11 | 1.77 ± 0.12 | 1.83 ± 0.12 | 1.89 ± 0.13 | 1.96 ± 0.13 | 2.01 ± 0.14 | 
CCCc1ccccc1 [propylbenzene] + CCCCCCCCCCCC[N+](C)(C)CCOc1ccccc1.O=S(=O)([N-]S(=O)(=O)C(F)(F)F)C(F)(F)F | 1.15 ± 0.07 | 1.2 ± 0.08 | 1.26 ± 0.08 | 1.32 ± 0.09 | 1.37 ± 0.09 |  | 1.09 ± 0.07
c1ccncc1 [pyridine] + CCCCCCCCCCCC[N+](C)(C)CCOc1ccccc1.N#C[N-]C#N | 0.586 ± 0.042 | 0.604 ± 0.042 | 0.622 ± 0.043 | 0.639 ± 0.044 | 0.656 ± 0.045 | 0.673 ± 0.046 | 
c1ccncc1 [pyridine] + CCCCCCCCCCCC[N+](C)(C)CCOc1ccccc1.O=S(=O)([N-]S(=O)(=O)C(F)(F)F)C(F)(F)F | 0.296 ± 0.031 | 0.313 ± 0.031 | 0.33 ± 0.032 | 0.346 ± 0.032 | 0.363 ± 0.033 |  | 0.278 ± 0.03
C=Cc1ccccc1 [styrene] + CCCCCCCCCCCC[N+](C)(C)CCOc1ccccc1.N#C[N-]C#N | 0.905 ± 0.057 | 0.94 ± 0.06 | 0.981 ± 0.062 | 1.02 ± 0.06 | 1.06 ± 0.07 | 1.1 ± 0.07 | 
